Data from BindingDB's records for doi:10.1016/j.bmcl.2009.09.017 (Pfizer, 2009).

Experiment: Antagonist activity at P2Y12 receptor in human platelet rich plasma assessed as inhibition of ADP-induced platelet aggregation by light transmission aggregometry
For `CCCCCOC(=O)N1CCN(C(=O)[C@H](CCC(=O)O)NC(=O)c2cc(N3CCN(C)CC3)nc(-c3ccccc3)n2)CC1` [(S)-4-(6-(4-methylpiperazin-1-yl)-2-phenylpyrimidine-4-carboxamido)-5-oxo-5-(4-(pentyloxycarbonyl)piperazin-1-yl)pentanoic acid], the IC50 was 1400 nM.
Work on `CCCCCOC(=O)N1CCN(C(=O)[C@H](CCC(=O)O)NC(=O)c2cc(N3CCN(C(=O)N(C)C)CC3)nc(-c3ccccc3)n2)CC1` [(S)-4-(6-(4-(dimethylcarbamoyl)piperazin-1-yl)-2-phenylpyrimidine-4-carboxamido)-5-oxo-5-(4-(pentyloxycarbonyl)piperazin-1-yl)pentanoic acid] yielded an IC50 of 1600 nM.
Work on `CCCCCOC(=O)N1CCN(C(=O)[C@H](CCC(=O)O)NC(=O)c2cc(N3CC(O)C3)nc(-c3ccccc3)n2)CC1` [(S)-4-(6-(3-hydroxyazetidin-1-yl)-2-phenylpyrimidine-4-carboxamido)-5-oxo-5-(4-(pentyloxycarbonyl)piperazin-1-yl)pentanoic acid] yielded an IC50 of 3500 nM.
`CCCCCOC(=O)N1CCN(C(=O)[C@H](CCC(=O)O)NC(=O)c2cc(N3CCC(CN)CC3)nc(-c3ccccc3)n2)CC1` [(S)-4-(6-(4-(aminomethyl)piperidin-1-yl)-2-phenylpyrimidine-4-carboxamido)-5-oxo-5-(4-(pentyloxycarbonyl)piperazin-1-yl)pentanoic acid] showed an IC50 of 490 nM.
For `CCCCCOC(=O)N1CCN(C(=O)[C@H](CCC(=O)O)NC(=O)c2cc(N3CCC(CCOC)CC3)nc(-c3ccccc3)n2)CC1` [(S)-4-(6-(4-(2-methoxyethyl)piperidin-1-yl)-2-phenylpyrimidine-4-carboxamido)-5-oxo-5-(4-(pentyloxycarbonyl)piperazin-1-yl)pentanoic acid], the IC50 was 6300 nM.
Molecule `CCCCCOC(=O)N1CCN(C(=O)[C@H](CCC(=O)O)NC(=O)c2nc(-c3ccccc3)cc(N3CCC(OCCO)CC3)n2)CC1` [(S)-4-(4-(4-(2-hydroxyethoxy)piperidin-1-yl)-6-phenylpyrimidine-2-carboxamido)-5-oxo-5-(4-(pentyloxycarbonyl)piperazin-1-yl)pentanoic acid] has an IC50 greater than 10000 nM.
`CCCCCOC(=O)N1CCN(C(=O)[C@H](CCC(=O)O)NC(=O)c2cc(N3CCC(C(=O)N(C)C)CC3)nc(-c3ccccc3)n2)CC1` [(S)-4-(6-(4-(dimethylcarbamoyl)piperidin-1-yl)-2-phenylpyrimidine-4-carboxamido)-5-oxo-5-(4-(pentyloxycarbonyl)piperazin-1-yl)pentanoic acid] gave an IC50 of 370 nM.
`CCCCCOC(=O)N1CCN(C(=O)[C@H](CCC(=O)O)NC(=O)c2nc(-c3ccccc3)cc(N3CCC(OC)CC3)n2)CC1` [(S)-4-(4-(4-methoxypiperidin-1-yl)-6-phenylpyrimidine-2-carboxamido)-5-oxo-5-(4-(pentyloxycarbonyl)piperazin-1-yl)pentanoic acid] gave an IC50 greater than 10000 nM.
Molecule `CCCCCOC(=O)N1CCN(C(=O)[C@H](CCC(=O)O)NC(=O)c2cc(N3CCN(C(C)=O)CC3)nc(-c3ccccc3)n2)CC1` [(S)-4-(6-(4-acetylpiperazin-1-yl)-2-phenylpyrimidine-4-carboxamido)-5-oxo-5-(4-(pentyloxycarbonyl)piperazin-1-yl)pentanoic acid] has an IC50 of 1500 nM.
Molecule `CCCCCOC(=O)N1CCN(C(=O)[C@H](CCC(=O)O)NC(=O)c2cc(N3CCC(CN4CCCC4=O)CC3)nc(-c3ccccc3)n2)CC1` [(S)-5-oxo-4-(6-(4-((2-oxopyrrolidin-1-yl)methyl)piperidin-1-yl)-2-phenylpyrimidine-4-carboxamido)-5-(4-(pentyloxycarbonyl)piperazin-1-yl)pentanoic acid] has an IC50 of 1600 nM.
`CCCCOC(=O)N1CCN(C(=O)[C@H](CCC(=O)O)NC(=O)c2cc(OCC3CCN(C)CC3)nc(-c3ccccc3)n2)CC1` [(S)-5-(4-(butoxycarbonyl)piperazin-1-yl)-4-(6-((1-methylpiperidin-4-yl)methoxy)-2-phenylpyrimidine-4-carboxamido)-5-oxopentanoic acid] showed an IC50 of 3000 nM.
`CCCCCOC(=O)N1CCN(C(=O)[C@H](CCC(=O)O)NC(=O)c2cc(SC3CCCC3)nc(-c3ccccc3)n2)CC1` [(S)-4-(6-(cyclopentylthio)-2-phenylpyrimidine-4-carboxamido)-5-oxo-5-(4-(pentyloxycarbonyl)piperazin-1-yl)pentanoic acid] gave an IC50 greater than 10000 nM.
`CCCCOC(=O)N1CCN(C(=O)[C@H](CCC(=O)O)NC(=O)c2cc(OCC3CCCO3)nc(-c3ccccc3)n2)CC1` (stereo partly drawn) [(4S)-5-(4-(butoxycarbonyl)piperazin-1-yl)-5-oxo-4-(2-phenyl-6-((tetrahydrofuran-2-yl)methoxy)pyrimidine-4-carboxamido)pentanoic acid] gave an IC50 of 4400 nM.
In the case of `CCCCCOC(=O)N1CCN(C(=O)[C@H](CCC(=O)O)NC(=O)c2nc(OCCOC)cc(-c3ccccc3)n2)CC1` [(S)-4-(4-(2-methoxyethoxy)-6-phenylpyrimidine-2-carboxamido)-5-oxo-5-(4-(pentyloxycarbonyl)piperazin-1-yl)pentanoic acid], the IC50 is reported as greater than 10000 nM.
`CCCCCOC(=O)N1CCN(C(=O)[C@H](CCC(=O)O)NC(=O)c2cc(OCCOC)nc(-c3ccccc3)n2)CC1` [(S)-4-(6-(2-methoxyethoxy)-2-phenylpyrimidine-4-carboxamido)-5-oxo-5-(4-(pentyloxycarbonyl)piperazin-1-yl)pentanoic acid] showed an IC50 of 7900 nM.
`CCCCCOC(=O)N1CCN(C(=O)[C@H](CCC(=O)O)NC(=O)c2cc(N3CCC(COCCOC)CC3)nc(-c3ccccc3)n2)CC1` [(S)-4-(6-(4-((2-methoxyethoxy)methyl)piperidin-1-yl)-2-phenylpyrimidine-4-carboxamido)-5-oxo-5-(4-(pentyloxycarbonyl)piperazin-1-yl)pentanoic acid] gave an IC50 of 2000 nM.
`CCCCCOC(=O)N1CCN(C(=O)[C@H](CCC(=O)O)NC(=O)c2nc(-c3ccccc3)cc(N3CCN(C(C)=O)CC3)n2)CC1` [(S)-4-(4-(4-acetylpiperazin-1-yl)-6-phenylpyrimidine-2-carboxamido)-5-oxo-5-(4-(pentyloxycarbonyl)piperazin-1-yl)pentanoic acid] gave an IC50 of 6500 nM.
Work on `CCCCCOC(=O)N1CCN(C(=O)[C@H](CCC(=O)O)NC(=O)c2cc(N3CCC(N4CCCC4)CC3)nc(-c3ccccc3)n2)CC1` [(S)-5-oxo-5-(4-(pentyloxycarbonyl)piperazin-1-yl)-4-(2-phenyl-6-(4-(pyrrolidin-1-yl)piperidin-1-yl)pyrimidine-4-carboxamido)pentanoic acid] yielded an IC50 of 510 nM.
For `CCCCOC(=O)N1CCN(C(=O)[C@H](CCC(=O)O)NC(=O)c2cc(N3CCC(C(=O)N4CCCC4)CC3)nc(-c3ccccc3)n2)CC1` [(S)-5-(4-(butoxycarbonyl)piperazin-1-yl)-5-oxo-4-(2-phenyl-6-(4-(pyrrolidine-1-carbonyl)piperidin-1-yl)pyrimidine-4-carboxamido)pentanoic acid], the IC50 was 390 nM.
Work on `CCCCCOC(=O)N1CCN(C(=O)[C@H](CCC(=O)O)NC(=O)c2nc(NCCOC)cc(-c3ccccc3)n2)CC1` [(S)-4-(4-(2-methoxyethylamino)-6-phenylpyrimidine-2-carboxamido)-5-oxo-5-(4-(pentyloxycarbonyl)piperazin-1-yl)pentanoic acid] yielded an IC50 greater than 10000 nM.
With `CCCCCOC(=O)N1CCN(C(=O)[C@H](CCC(=O)O)NC(=O)c2nc(-c3ccccc3)cc(N3CCOCC3)n2)CC1` [(S)-4-(4-morpholino-6-phenylpyrimidine-2-carboxamido)-5-oxo-5-(4-(pentyloxycarbonyl)piperazin-1-yl)pentanoic acid] the IC50 was greater than 10000 nM.
Work on `CCCCCOC(=O)N1CCN(C(=O)[C@H](CCC(=O)O)NC(=O)c2nc(-c3ccccc3)cc(N3CCC(CCN)CC3)n2)CC1` [(S)-4-(4-(4-(2-aminoethyl)piperidin-1-yl)-6-phenylpyrimidine-2-carboxamido)-5-oxo-5-(4-(pentyloxycarbonyl)piperazin-1-yl)pentanoic acid] yielded an IC50 of 1400 nM.
`CCCCCOC(=O)N1CCN(C(=O)[C@H](CCC(=O)O)NC(=O)c2cc(N3CC(OCC)C3)nc(-c3ccccc3)n2)CC1` [(S)-4-(6-(3-ethoxyazetidin-1-yl)-2-phenylpyrimidine-4-carboxamido)-5-oxo-5-(4-(pentyloxycarbonyl)piperazin-1-yl)pentanoic acid] gave an IC50 of 4100 nM.
With `CCCCCOC(=O)N1CCN(C(=O)[C@H](CCC(=O)O)NC(=O)c2nc(-c3ccccc3)cc(N3CCC(CNCC)CC3)n2)CC1` [(S)-4-(4-(4-((ethylamino)methyl)piperidin-1-yl)-6-phenylpyrimidine-2-carboxamido)-5-oxo-5-(4-(pentyloxycarbonyl)piperazin-1-yl)pentanoic acid] the IC50 was 1200 nM.
`CCCCCOC(=O)N1CCN(C(=O)[C@H](CCC(=O)O)NC(=O)c2nc(-c3ccccc3)cc(N3CCC(N4CCOCC4)CC3)n2)CC1` [(S)-4-(4-(4-morpholinopiperidin-1-yl)-6-phenylpyrimidine-2-carboxamido)-5-oxo-5-(4-(pentyloxycarbonyl)piperazin-1-yl)pentanoic acid] showed an IC50 of 3000 nM.
`CCCCCOC(=O)N1CCN(C(=O)[C@H](CCC(=O)O)NC(=O)c2cc(NC3CCN(C(C)C)CC3)nc(-c3ccccc3)n2)CC1` [(S)-4-(6-(1-isopropylpiperidin-4-ylamino)-2-phenylpyrimidine-4-carboxamido)-5-oxo-5-(4-(pentyloxycarbonyl)piperazin-1-yl)pentanoic acid] gave an IC50 of 3700 nM.
In the case of `CCCCCOC(=O)N1CCN(C(=O)[C@H](CCC(=O)O)NC(=O)c2nc(OCCCN3CCOCC3)cc(-c3ccccc3)n2)CC1` [(S)-4-(4-(3-morpholinopropoxy)-6-phenylpyrimidine-2-carboxamido)-5-oxo-5-(4-(pentyloxycarbonyl)piperazin-1-yl)pentanoic acid], the IC50 is reported as 7000 nM.
With `CCCCOC(=O)N1CCN(C(=O)[C@H](CCC(=O)O)NC(=O)c2cc(N3CCC(N4CCOCC4)CC3)nc(-c3ccccc3)n2)CC1` [(S)-5-(4-(butoxycarbonyl)piperazin-1-yl)-4-(6-(4-morpholinopiperidin-1-yl)-2-phenylpyrimidine-4-carboxamido)-5-oxopentanoic acid] the IC50 was 880 nM.
`CCCCCOC(=O)N1CCN(C(=O)[C@H](CCC(=O)O)NC(=O)c2cc(N3CCN(CC(=O)N(C)C)CC3)nc(-c3ccccc3)n2)CC1` [(S)-4-(6-(4-(2-(dimethylamino)-2-oxoethyl)piperazin-1-yl)-2-phenylpyrimidine-4-carboxamido)-5-oxo-5-(4-(pentyloxycarbonyl)piperazin-1-yl)pentanoic acid] showed an IC50 of 530 nM.
